According to paper PMC2813745, “A novel inhibitor of the PI3K/Akt pathway based on the structure of inositol 1,3,4,5,6-pentakisphosphate” (British Journal of Cancer, 2010):

Columns and labels:
CDK2/cyclin A = CDK2/cyclin A (Homo sapiens, UniProt P24941); assay: SelectScreen kinase profiling: CDK2/cyclin A; format: biochemical; details: [ATP] 25 µM
Description: (§1) Effect of the indicated compounds on the activity of various kinases was assessed by SelectScreen Kinase Profiling Service (Invitrogen-Life Technologies, Paisley, UK). Assays were performed using 1 μM of the tested compounds and ATP concentration as indicated in the corresponding tables. In the case of […] a screen using 10 μM of the compound was also carried out, as indicated in the corresponding table.

CDK9/cyclin T1 = CDK9/cyclin T1 (Homo sapiens, UniProt P50750); assay: SelectScreen kinase profiling: CDK9/cyclin T1; format: biochemical; details: [ATP] 25 µM
Description: as §1

Akt1 (PKBα) = Akt1 (PKBα) (Homo sapiens, UniProt P31749); assay: SelectScreen kinase profiling: Akt1; format: biochemical; details: 10-point titration; [ATP] 75 μM
Sequence of Akt1 (PKBα) (P31749 whole entry): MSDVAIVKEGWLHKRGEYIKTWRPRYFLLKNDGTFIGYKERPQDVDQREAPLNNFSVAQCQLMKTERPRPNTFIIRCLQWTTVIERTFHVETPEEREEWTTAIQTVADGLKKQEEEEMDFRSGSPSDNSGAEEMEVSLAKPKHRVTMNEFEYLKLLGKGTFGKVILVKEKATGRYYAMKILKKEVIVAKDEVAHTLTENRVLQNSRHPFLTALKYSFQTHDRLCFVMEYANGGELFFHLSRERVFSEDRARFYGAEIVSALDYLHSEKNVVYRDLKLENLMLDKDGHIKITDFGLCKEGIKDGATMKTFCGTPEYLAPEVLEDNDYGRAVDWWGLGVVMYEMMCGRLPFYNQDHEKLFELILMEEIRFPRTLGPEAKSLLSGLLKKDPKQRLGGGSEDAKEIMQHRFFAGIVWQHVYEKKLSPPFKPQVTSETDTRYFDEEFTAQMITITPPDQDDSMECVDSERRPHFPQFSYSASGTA
Description: Effect of the indicated compounds on the activity of various kinases was assessed by SelectScreen Kinase Profiling Service (Invitrogen-Life Technologies, Paisley, UK). […] In the case of […] a screen using 10 μM of the compound was also carried out, as indicated in the corresponding table.

FRAP1 (mTOR) = FRAP1 (mTOR) (Homo sapiens, UniProt P42345); assay: SelectScreen kinase profiling: mTOR; format: biochemical
Description: as §1

BRAF = BRAF (Homo sapiens, UniProt P15056); assay: SelectScreen kinase profiling: BRAF; format: biochemical; details: [ATP] 100 µM
Sequence of BRAF (P15056 whole entry): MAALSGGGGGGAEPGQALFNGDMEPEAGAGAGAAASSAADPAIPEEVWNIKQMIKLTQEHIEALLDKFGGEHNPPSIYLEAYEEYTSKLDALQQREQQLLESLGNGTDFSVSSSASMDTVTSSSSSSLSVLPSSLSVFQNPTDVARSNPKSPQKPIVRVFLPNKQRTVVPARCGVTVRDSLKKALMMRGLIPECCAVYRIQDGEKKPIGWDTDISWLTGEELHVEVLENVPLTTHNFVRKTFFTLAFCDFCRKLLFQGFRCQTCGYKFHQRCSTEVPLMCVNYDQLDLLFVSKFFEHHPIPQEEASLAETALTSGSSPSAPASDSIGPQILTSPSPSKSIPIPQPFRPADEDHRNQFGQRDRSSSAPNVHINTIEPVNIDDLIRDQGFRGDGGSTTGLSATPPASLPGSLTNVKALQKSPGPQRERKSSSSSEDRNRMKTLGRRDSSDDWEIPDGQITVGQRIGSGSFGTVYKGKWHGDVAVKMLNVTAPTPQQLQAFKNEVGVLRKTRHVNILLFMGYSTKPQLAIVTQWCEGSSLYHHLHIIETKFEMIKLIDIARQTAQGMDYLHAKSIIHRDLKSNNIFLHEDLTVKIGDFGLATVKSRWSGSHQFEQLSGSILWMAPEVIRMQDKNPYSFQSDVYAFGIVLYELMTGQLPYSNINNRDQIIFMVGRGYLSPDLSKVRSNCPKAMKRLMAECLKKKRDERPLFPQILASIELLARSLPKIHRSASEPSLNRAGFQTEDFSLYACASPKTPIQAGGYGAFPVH
Description: as §1

IKBKB (IKKβ) = IKBKB (IKKβ) (Homo sapiens, UniProt O14920); assay: SelectScreen kinase profiling: IKBKB; format: biochemical; details: 1 µM compound; [ATP] 5 µM
Sequence of IKBKB (IKKβ) (O14920 whole entry): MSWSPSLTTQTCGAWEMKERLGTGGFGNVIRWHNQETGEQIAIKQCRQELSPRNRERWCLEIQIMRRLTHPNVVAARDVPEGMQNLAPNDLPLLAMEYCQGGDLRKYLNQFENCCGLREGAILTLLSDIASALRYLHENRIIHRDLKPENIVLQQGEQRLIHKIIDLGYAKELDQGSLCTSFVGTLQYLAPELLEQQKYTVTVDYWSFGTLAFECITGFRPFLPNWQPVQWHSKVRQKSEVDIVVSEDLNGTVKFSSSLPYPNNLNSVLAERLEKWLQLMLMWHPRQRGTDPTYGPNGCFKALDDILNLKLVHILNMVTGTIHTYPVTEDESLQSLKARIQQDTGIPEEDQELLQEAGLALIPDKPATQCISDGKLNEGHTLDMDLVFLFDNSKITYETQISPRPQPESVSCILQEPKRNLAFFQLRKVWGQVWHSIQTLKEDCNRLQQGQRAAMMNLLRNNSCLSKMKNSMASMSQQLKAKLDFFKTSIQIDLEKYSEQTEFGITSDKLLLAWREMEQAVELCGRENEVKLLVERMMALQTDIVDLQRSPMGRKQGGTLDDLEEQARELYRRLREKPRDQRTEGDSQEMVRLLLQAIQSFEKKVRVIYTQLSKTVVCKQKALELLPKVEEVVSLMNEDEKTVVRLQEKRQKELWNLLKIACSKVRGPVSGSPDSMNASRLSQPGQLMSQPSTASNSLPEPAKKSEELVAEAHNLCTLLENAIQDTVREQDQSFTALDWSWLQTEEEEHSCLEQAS
Description: as §1

PDK1 = target: T1, PDK1 (Homo sapiens, UniProt O15530); assay: SelectScreen kinase profiling: PDK1; format: biochemical; details: for IC50: 10-point titration, [ATP] 100 μM
T1 sequence (O15530 1-556): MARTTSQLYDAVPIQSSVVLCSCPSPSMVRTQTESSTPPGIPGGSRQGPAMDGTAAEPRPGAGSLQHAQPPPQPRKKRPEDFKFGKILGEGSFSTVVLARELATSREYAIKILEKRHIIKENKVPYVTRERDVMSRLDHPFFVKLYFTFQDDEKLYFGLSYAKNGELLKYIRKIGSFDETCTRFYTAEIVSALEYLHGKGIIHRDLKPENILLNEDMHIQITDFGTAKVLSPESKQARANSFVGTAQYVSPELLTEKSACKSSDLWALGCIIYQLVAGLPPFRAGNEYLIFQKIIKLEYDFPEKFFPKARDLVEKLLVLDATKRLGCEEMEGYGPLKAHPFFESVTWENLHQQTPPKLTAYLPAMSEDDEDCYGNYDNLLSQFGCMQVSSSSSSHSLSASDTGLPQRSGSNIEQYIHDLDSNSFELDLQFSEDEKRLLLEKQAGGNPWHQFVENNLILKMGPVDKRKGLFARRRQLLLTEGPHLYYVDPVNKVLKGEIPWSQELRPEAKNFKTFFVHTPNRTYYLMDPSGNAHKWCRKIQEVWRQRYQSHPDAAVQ
Description: as §1

MAPK8 (JNK1) = MAPK8 (JNK1) (Homo sapiens, UniProt P45983); assay: SelectScreen kinase profiling: MAPK8; format: biochemical; details: [ATP] 100 µM
Sequence of MAPK8 (JNK1) (P45983 whole entry): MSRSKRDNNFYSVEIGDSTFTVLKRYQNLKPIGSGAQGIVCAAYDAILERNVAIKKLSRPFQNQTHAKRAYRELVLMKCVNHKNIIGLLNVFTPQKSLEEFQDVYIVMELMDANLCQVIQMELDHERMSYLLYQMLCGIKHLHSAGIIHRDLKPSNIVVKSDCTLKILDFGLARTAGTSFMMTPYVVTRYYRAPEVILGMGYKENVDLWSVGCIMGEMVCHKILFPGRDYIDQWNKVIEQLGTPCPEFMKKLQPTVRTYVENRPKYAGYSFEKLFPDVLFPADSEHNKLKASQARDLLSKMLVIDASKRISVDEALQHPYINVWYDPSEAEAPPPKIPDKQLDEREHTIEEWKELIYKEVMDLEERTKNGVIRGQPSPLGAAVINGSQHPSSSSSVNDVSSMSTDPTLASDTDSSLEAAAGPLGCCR
Description: as §1

Toxicity in mice = format: in vivo, nude CD-1 mice; details: for body weight of the treated animals / toxicity: 12.5, 25, 50 mg kg^−1 day^−1 i.p., 14 consecutive days; for toxic effect: single dose 750 mg kg^−1 i.p.
Description: Each group consisted of 2–3 mice. Body weight, deaths and any other sign of toxicity and changes in behaviour (such as motility, eating and drinking habits) were recorded.
Exponentially growing PC3 cells were harvested, washed twice and resuspended in PBS at a concentration of 2.5 × 10^7 cells ml^−1. A suspension of 5 × 10^6 PC3 cells was injected subcutaneously (s.c.) into the left flank of the recipient mice. When tumours reached a size of ∼70 mm^3 (approximately 15 days after tumour cell implant), mice were divided into seven groups (n=7). […] Control mice were treated with water in an equal volume. The diameters of s.c. growing tumours were measured with a caliper twice a week and the experiment was ended at day 28 after the implantation.
The inositol compounds (12.5–25–50 mg kg^−1 day^−1) and vehicle (water) were given daily by intraperitoneal (i.p.) injections for 14 consecutive days (days 15–28). Tumour size was assessed twice weekly. (A, B) Tumour growth in 2-O-Bn-InsP5-treated mice (A) and InsP5-treated mice (B) compared with control group measured for the duration of the experiment. Results are expressed as mean±s.e. (C) Top: Table showing all P-values for the indicated doses of 2-O-Bn-InsP5 compared to controls at the indicated days of treatment (NS=not significant). Bottom: In vivo anti-tumour activity parameters. The percentage of tumour weight inhibition (TWI%), the tumour growth delay (T−C) and the log cell kill (LCK) were calculated as described in the MATERIALS AND METHODS section. The highest inhibition of tumour volume is reported. […] Tumours were excised 24 h after treatment. Phosphorylation of Akt at its residues Ser473 and Thr308 was assessed by using specific antibodies. Membranes were then stripped and re-probed with an anti-Akt antibody.

CHEK1 (CHK1) = CHEK1 (CHK1) (Homo sapiens, UniProt O14757); assay: SelectScreen kinase profiling: CHEK1; format: biochemical; details: [ATP] 50 µM
Sequence of CHEK1 (CHK1) (O14757 whole entry): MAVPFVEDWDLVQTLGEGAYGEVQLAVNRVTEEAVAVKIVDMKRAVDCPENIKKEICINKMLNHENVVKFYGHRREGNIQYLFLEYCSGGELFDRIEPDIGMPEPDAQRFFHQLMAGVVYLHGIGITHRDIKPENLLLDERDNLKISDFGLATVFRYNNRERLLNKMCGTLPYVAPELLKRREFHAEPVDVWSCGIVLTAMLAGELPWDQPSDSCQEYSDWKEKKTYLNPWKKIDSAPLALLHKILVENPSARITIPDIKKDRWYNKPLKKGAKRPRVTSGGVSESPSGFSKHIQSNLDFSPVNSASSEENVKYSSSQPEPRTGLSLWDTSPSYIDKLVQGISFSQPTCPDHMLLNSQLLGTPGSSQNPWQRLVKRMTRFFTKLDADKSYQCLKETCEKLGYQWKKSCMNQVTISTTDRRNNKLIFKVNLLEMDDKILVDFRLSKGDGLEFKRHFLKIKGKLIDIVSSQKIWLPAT
Description: as §1

MARK1 (MARK) = MARK1 (MARK) (Homo sapiens, UniProt Q9P0L2); assay: SelectScreen kinase profiling: MARK1; format: biochemical; details: [ATP] 5 µM
Sequence of MARK1 (MARK) (Q9P0L2 whole entry): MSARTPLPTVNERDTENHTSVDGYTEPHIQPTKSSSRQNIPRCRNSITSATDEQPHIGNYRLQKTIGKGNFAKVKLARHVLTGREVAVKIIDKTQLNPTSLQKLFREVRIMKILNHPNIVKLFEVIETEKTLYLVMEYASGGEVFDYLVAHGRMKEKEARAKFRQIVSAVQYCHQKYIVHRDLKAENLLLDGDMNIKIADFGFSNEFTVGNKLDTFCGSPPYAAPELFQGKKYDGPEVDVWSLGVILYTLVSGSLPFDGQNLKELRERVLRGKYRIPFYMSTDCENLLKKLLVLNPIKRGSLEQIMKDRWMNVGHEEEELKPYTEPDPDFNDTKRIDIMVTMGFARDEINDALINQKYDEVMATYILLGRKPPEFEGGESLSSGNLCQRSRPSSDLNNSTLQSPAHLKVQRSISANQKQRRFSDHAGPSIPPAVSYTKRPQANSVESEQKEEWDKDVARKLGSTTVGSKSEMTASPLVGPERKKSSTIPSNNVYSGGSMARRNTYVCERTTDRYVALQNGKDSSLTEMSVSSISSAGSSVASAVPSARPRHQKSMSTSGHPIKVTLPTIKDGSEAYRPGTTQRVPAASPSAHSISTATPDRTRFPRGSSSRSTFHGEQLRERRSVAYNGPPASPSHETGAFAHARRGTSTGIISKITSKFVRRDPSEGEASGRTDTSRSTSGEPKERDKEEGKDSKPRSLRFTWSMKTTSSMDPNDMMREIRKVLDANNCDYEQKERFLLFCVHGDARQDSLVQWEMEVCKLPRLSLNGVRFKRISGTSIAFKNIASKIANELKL
Description: as §1

GSK3A (GSK3α) = GSK3A (GSK3α) (Homo sapiens, UniProt P49840); assay: SelectScreen kinase profiling: GSK3A; format: biochemical; details: [ATP] 10 µM
Sequence of GSK3A (GSK3α) (P49840 whole entry): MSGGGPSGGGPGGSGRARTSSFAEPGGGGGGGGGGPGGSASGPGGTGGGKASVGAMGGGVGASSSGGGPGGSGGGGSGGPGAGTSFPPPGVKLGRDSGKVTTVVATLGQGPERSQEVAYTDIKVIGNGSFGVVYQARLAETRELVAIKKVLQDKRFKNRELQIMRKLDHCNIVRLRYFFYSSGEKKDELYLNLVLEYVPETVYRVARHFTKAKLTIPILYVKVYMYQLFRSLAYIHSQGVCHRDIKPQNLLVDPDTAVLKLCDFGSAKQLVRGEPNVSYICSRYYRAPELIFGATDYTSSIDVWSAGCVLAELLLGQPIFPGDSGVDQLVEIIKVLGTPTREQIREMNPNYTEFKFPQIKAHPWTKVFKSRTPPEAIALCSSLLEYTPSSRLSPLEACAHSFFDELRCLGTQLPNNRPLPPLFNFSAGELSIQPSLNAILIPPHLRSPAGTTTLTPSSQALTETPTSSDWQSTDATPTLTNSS
Description: as §1

[1] = 1 µM compound, [ATP] 100 µM, single point

O=P(O)(O)OC1C(OCc2ccccc2)C(OP(=O)(O)O)C(OP(=O)(O)O)C(OP(=O)(O)O)C1OP(=O)(O)O (centres unmarked) [2-O-Bn-InsP5, 2-O-benzyl-myo-inositol 1,3,4,5,6-pentakisphosphate]
inhibition at 1 µM (CDK2/cyclin A; 1 µM compound): 2% | inhibition at 1 µM (CDK9/cyclin T1; 1 µM compound): -11% | IC50 (Akt1 (PKBα)): > 100000 nM | inhibition at 1 µM (FRAP1 (mTOR); 1 µM compound, [ATP] 10 µM): 48% | IC50 (FRAP1 (mTOR); 10-point titration, [ATP] 10 μM): 1300 nM | inhibition at 1 µM (BRAF; 1 µM compound): 5% | inhibition at 1 µM (IKBKB (IKKβ)): 13% | inhibition at 1 µM (PDK1; [1]): 79% | IC50 (PDK1): 26.5 nM | inhibition at 1 µM (MAPK8 (JNK1); 1 µM compound): 24% | body weight of the treated animals (Toxicity in mice): not different from the untreated mice | toxicity (Toxicity in mice): no evidence of toxicity | tolerability in vivo (Toxicity in mice; relative to the active dose): well tolerated in vivo even at concentrations 15 times higher the active dose | toxic effect (Toxicity in mice): did not cause any major toxic effect | inhibition at 1 µM (CHEK1 (CHK1); 1 µM compound): 15% | inhibition at 1 µM (MARK1 (MARK); 1 µM compound): 0% | inhibition at 1 µM (GSK3A (GSK3α); 1 µM compound): 3%

O=P(O)(O)OC1C(O)C(OP(=O)(O)O)C(OP(=O)(O)O)C(OP(=O)(O)O)C1OP(=O)(O)O (centres unmarked) [InsP5, inositol 1,3,4,5,6-pentakisphosphate]
inhibition at 10 µM (CDK2/cyclin A; 10 µM compound): 9% | inhibition at 10 µM (CDK9/cyclin T1; 10 µM compound): 1% | IC50 (Akt1 (PKBα)): > 100000 nM | % Inhibition Mean (FRAP1 (mTOR); 10 µM compound, [ATP] 10 µM): did not inhibit mTOR | inhibition at 10 µM (FRAP1 (mTOR); 10 µM compound, [ATP] 10 µM): 16% | inhibition at 10 µM (BRAF; 10 µM compound): 10% | inhibition at 1 µM (IKBKB (IKKβ)): 1% | % Inhibition Mean (PDK1; [1]): 68% | inhibition at 1 µM (PDK1; [1]): 71% | inhibition at 10 µM (PDK1; 10 µM compound, [ATP] 100 µM): 70% | IC50 (PDK1): 613 nM | inhibition at 10 µM (MAPK8 (JNK1); 10 µM compound): 14% | body weight of the treated animals (Toxicity in mice): not different from the untreated mice | toxicity (Toxicity in mice): no evidence of toxicity | toxic effect (Toxicity in mice): did not cause any major toxic effect | inhibition at 10 µM (CHEK1 (CHK1); 10 µM compound): 17% | inhibition at 10 µM (MARK1 (MARK); 10 µM compound): 7% | inhibition at 10 µM (GSK3A (GSK3α); 10 µM compound): 15%
